In US9951366B2, “Cell-free protein synthesis method and device using a eukaryotic cell lysate in the presence of a caspase inhibitor and the use of a caspase inhibitor for increasing the yield and/or the stability of the synthesized proteins in such a method” (Fraunhofer-Gesellschaft zur Foerderung der angewandten …, priority 2013, dated 2018):

Tests used:
[1] = tested on: cell-free eukaryotic translation system on the basis of a cell extract from Spodoptera frugiperda (Sf21) insect cells; assay: Influence of DTT on expression of model proteins in batch and dialysis system (autoradiograph); format: biochemical; conditions: with Z-VAD-FMK, 48 h
Experimental: For this purpose, the influence of the reducing agent DTT on the synthesis performance of the batch and dialysis system with different model proteins was investigated.
The synthesis of the glycoprotein erythropoietin (N-terminally fused to a melittin signal sequence; Mel-EPO; 20.9 kDa, unglycosylated) and of ETB (49.3 kDa), luciferase (60.6 kDa), Mel-Hb-EGF-eYFP (51 kDa) and bacteriorhodopsin (26.9 kDa) was carried out in the batch (B) and dialysis system (D) with the addition of the caspase inhibitor (Z-VAD-FMK) without (−) and with (+) the addition of DTT in the translation buffer in the presence of ^14C-leucine for 48 h, 27° C. and 600 rpm.
Control=translation mixture without the addition of a DNA template.

[2] = tested on: eukaryotic translation system on the basis of a cell extract from Spodoptera frugiperda (Sf21) insect cells; assay: Influence of irreversible and reversible caspase inhibitors on SII-eYFP synthesis, relative fluorescence intensity; format: biochemical; conditions: inhibitor 30 μM, 48 h, dialysis mode, compared with control dialysis mixture without inhibitor
Experimental: Using the example of the fluorescent protein SII-eYFP, the influence of different irreversible caspase inhibitors (Z-VAD-FMK, Ac-VAD-CMK, Ac-DEVD-CMK (SEQ ID NO:1), Q-VD-OPh) and of a reversible caspase inhibitor (Ac-[…]-CHO (SEQ ID NO:10)) on the synthesis was investigated in a eukaryotic dialysis translation system.
The translation of SII-eYFP was carried out using the DNA template pIX3.0-SII-eYFP over 48 h at 600 rpm and 27° C. in the batch and dialysis modes in the presence of different irreversible and reversible caspase inhibitors. All inhibitors were used in a concentration of 30 μM. Following the completion of translation, the different mixtures were examined in the phosphorimager system (Typhoon TRIO+ imager, GE Healthcare) for their fluorescence intensity. For this purpose, 5 μl of each translation mixture was resuspended in 25 μl PBS. Subsequently, 25 μl of this sample was pipetted into a cavity of an Ibidi slide and measured, the excitation of the samples taking place at 488 nm and the emission being measured at 526 nm.

Compound	effect of absence of DTT on expression of model proteins (luciferase, SII-eYFP, ETB, Mel-Hb-EGF-eYFP, bacteriorhodopsin) [1]	glycosylation of Mel-EPO ([1]; with/without DTT)	increase of synthesis yield of fluorescing SII-eYFP [2]
O[C@H](CS)[C@H](O)CS (racemic) [DTT, dithiothreitol]	no negative effect	complete glycosylation of the target protein could only be achieved in the presence of DTT	
CC(=O)N[C@@H](CC(=O)O)C(=O)N[C@@H](CCC(=O)O)C(=O)N[C@H](C(=O)N[C@@H](CC(=O)O)C(=O)CCl)C(C)C [Ac-DEVD-CMK, acetyl-Asp-Glu-Val-Asp-chloromethylketone]			122%
CC(C)C(NC(=O)c1ccc2ccccc2n1)C(=O)NC(CC(=O)O)C(=O)COc1c(F)cccc1F (stereo not drawn) [Q-VD-OPh, N-(2-quinolyl)-Val-Asp-(2,6-difluorophenoxy)-methylketone]			77%
acetyl-Ala-Ala-Val-Ala-Leu-Leu-Pro-Ala-Val-Leu-Leu-Ala-Leu-Leu-Ala-Pro-Asp-Glu-Val-Asp-aldehyde (Ac-AAVALLPAVLLALLAPDEVD-aldehyde; SMILES CC(=O)N[C@@H](C)C(=O)N[C@@H](C)C(=O)N[C@H](C(=O)N[C@@H](C)C(=O)N[C@@H](CC(C)C)C(=O)N[C@@H](CC(C)C)C(=O)N1CCC[C@H]1C(=O)N[C@@H](C)C(=O)N[C@H](C(=O)N[C@@H](CC(C)C)C(=O)N[C@@H](CC(C)C)C(=O)N[C@@H](C)C(=O)N[C@@H](CC(C)C)C(=O)N[C@@H](CC(C)C)C(=O)N[C@@H](C)C(=O)N1CCC[C@H]1C(=O)N[C@@H](CC(=O)O)C(=O)N[C@@H](CCC(=O)O)C(=O)N[C@H](C(=O)N[C@H](C=O)CC(=O)O)C(C)C)C(C)C)C(C)C)			53%
